Data on 11 compounds can be found in ChEMBL document CHEMBL1201862, “PubChem BioAssay data set” (2004).

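The compound was tested at five concentrations on cells cultured in 96-well plates, with a 48-hour exposure period. The concentration for 50% growth inhibition is given as GI50.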 The source made the active and inactive calls. Cut-off read from the data, not from the text of the source: active = GI50 up to about 1.1 µM and inactive = higher.

Test systems include BT-549; A549; SW-620; SF-539; SK-OV-3; NCI-H226; M14; SK-MEL-2; SNB-19; MDA-MB-435; MCF7; SF-268; EKVX; MDA-MB-231; HCT-15; RPMI-8226; U-251; 786-0; K562; HL-60.
What all share (experiment): NCI-60 cell line screen, 48 h

For the compound `CCCCCCCCCC(=O)NCCc1c[nH]c2ccc(OC)cc12`, the GI50 in the test on BT-549 was 18.6 µM (inactive); in the test on A549, 19 µM (inactive); in the test with SW-620 it was 18.2 µM (inactive); in the test on SF-539, 23.2 µM (inactive); with SK-OV-3 it was 17.4 µM (inactive); in the test with NCI-H226, 19.9 µM (inactive). Further, the GI50 with M14 is 17.9 µM (inactive); in the test on SK-MEL-2 it was 16.1 µM (inactive); in the test on SNB-19 it was 16.5 µM (inactive); in the test with MDA-MB-435 it was 24.5 µM (inactive); with MCF7, 17.5 µM (inactive); in the test on SF-268, 17.7 µM (inactive). For the same compound, the GI50 with EKVX is 28 µM (inactive); with MDA-MB-231 it was 15.1 µM (inactive); in the test with HCT-15, 19.1 µM; with RPMI-8226, 21.1 µM (inactive); with U-251 it was 17 µM (inactive); with 786-0, 19.2 µM (inactive). In the test with K562, the GI50 is 55 µM (inactive).
Turning to `COCP1(=S)OC(C)CCN1C(C)C` (centres undefined), the GI50 with BT-549, in the test with A549, with SW-620, in the test with SF-539, with SK-OV-3 and in the test with NCI-H226 was > 100 µM (inactive) throughout. For the same compound, the GI50 in the test with M14, in the test with SK-MEL-2, in the test with SNB-19, in the test on MDA-MB-435, in the test with MCF7 and in the test on SF-268 was > 100 µM (inactive) throughout. Also, the GI50 was > 100 µM (inactive) with EKVX; > 100 µM (inactive) in the test on MDA-MB-231; over 100 µM with HCT-15; > 100 µM (inactive) in the test with RPMI-8226; > 100 µM (inactive) in the test with U-251; > 100 µM (inactive) with 786-0. Also, the GI50 in the test with K562 is > 100 µM (inactive).
For `CN(CCNC(=O)c1cn(C)c2c1ccc1ccccc12)CCNC(=O)c1cn(C)c2c1ccc1ccccc12`, the GI50 in the test on BT-549 was 1.26 µM (inactive); in the test with A549, 3.59 µM (inactive); with SW-620, 2.7 µM (inactive); with SF-539 it was 1.76 µM (inactive); with SK-OV-3, 8.04 µM (inactive); in the test with NCI-H226 it was 5.55 µM (inactive). Besides, the GI50 was 1.95 µM (inactive) in the test on M14; 2.2 µM (inactive) in the test on SK-MEL-2; 3.57 µM (inactive) in the test on SNB-19; 2.2 µM (inactive) in the test on MDA-MB-435; 1.51 µM (inactive) in the test on MCF7; 2.69 µM (inactive) in the test on SF-268. Besides, the GI50 is 2.37 µM (inactive) in the test on EKVX; 1.47 µM (inactive) in the test on MDA-MB-231; 1.26 µM in the test on HCT-15; 2.59 µM (inactive) with RPMI-8226; 2.04 µM (inactive) with U-251; 2.04 µM (inactive) in the test on 786-0. The GI50 in the test with K562 was 0.365 µM (active).
Consider `COc1ccc(/C=C(/c2ccc(OC)cc2)c2c(Cl)cc(Cl)c(/C(=C\c3ccc(OC)cc3)c3ccc(OC)cc3)c2/N=N/c2ccccc2)cc1`, for which the GI50 in the test with BT-549 is > 100 µM (inactive); in the test with A549, > 100 µM (inactive); with SW-620, > 100 µM (inactive); with SF-539, 34.4 µM (inactive); with HL-60 it was > 100 µM (inactive); in the test with SK-OV-3, > 100 µM (inactive). Also, the GI50 was > 100 µM (inactive) with M14; > 100 µM (inactive) with SK-MEL-2; > 100 µM (inactive) in the test on SNB-19; > 100 µM (inactive) with MDA-MB-435; 62.1 µM (inactive) in the test on MCF7; > 100 µM (inactive) with SF-268. Further, the GI50 with EKVX was > 100 µM (inactive); in the test on MDA-MB-231, > 100 µM (inactive); in the test with HCT-15 it was over 100 µM; with RPMI-8226, > 100 µM (inactive); in the test with U-251, 66.4 µM (inactive); in the test with 786-0 it was > 100 µM (inactive). Moreover, in the test with K562, the GI50 was 45.1 µM (inactive).
`CSc1csc(-c2ccc(-c3ccc(-c4cc(SC)cs4)s3)s2)c1`: the GI50 in the test with BT-549, with A549, in the test on SW-620, in the test with SF-539, in the test with SK-OV-3 and with NCI-H226 was > 100 µM (inactive) throughout. Also, the GI50 in the test on M14, in the test with SK-MEL-2, in the test on SNB-19, in the test on MDA-MB-435, with MCF7 and in the test with SF-268 was > 100 µM (inactive) in each case. Also, the GI50 was > 100 µM (inactive) with EKVX; > 100 µM (inactive) in the test with MDA-MB-231; over 100 µM with HCT-15; > 100 µM (inactive) in the test on RPMI-8226; > 100 µM (inactive) in the test on U-251; > 100 µM (inactive) with 786-0. Further, in the test on K562, the GI50 is > 100 µM (inactive).
As to `NC1=NCC(CN2CCOCC2)O1` (centres undefined), the GI50 with BT-549, with A549, in the test with SW-620, in the test with SF-539, with HL-60 and in the test on SK-OV-3 was > 100 µM (inactive) each time. For the same compound, the GI50 with M14, with SK-MEL-2, with SNB-19, in the test on MDA-MB-435, in the test on MCF7 and in the test on SF-268 was > 100 µM (inactive) throughout. The GI50 with EKVX is > 100 µM (inactive); with MDA-MB-231, > 100 µM (inactive); in the test on HCT-15 it was over 100 µM; with RPMI-8226 it was > 100 µM (inactive); in the test on U-251, > 100 µM (inactive); in the test on 786-0, > 100 µM (inactive). Moreover, the GI50 in the test on K562 is > 100 µM (inactive).
As to `Cc1cc(C)nc(NS(=O)(=O)c2ccc(Nc3c4ccccc4nc4c(C(=O)NCCO)cccc34)cc2)n1`, the GI50 in the test on BT-549 was 17.6 µM (inactive); with A549, 29.6 µM (inactive); with SW-620 it was 16.7 µM (inactive); in the test with HL-60 it was 31.8 µM (inactive); with SK-OV-3, 44.9 µM (inactive); in the test with M14, 31.1 µM (inactive). Besides, the GI50 in the test with SK-MEL-2 is 11.8 µM (inactive); in the test on SNB-19, 16.6 µM (inactive); in the test with MDA-MB-435, 16.6 µM (inactive); in the test on MCF7 it was 18 µM (inactive); with SF-268, 14.5 µM (inactive); in the test on EKVX, 41.5 µM (inactive). The GI50 in the test with MDA-MB-231 was 12.4 µM (inactive); with HCT-15, 17.8 µM; in the test with RPMI-8226 it was 10.3 µM (inactive); with U-251, 17.1 µM (inactive); in the test on 786-0 it was > 10 µM (inactive); with K562, 12.4 µM (inactive).
Consider `NC(=S)N/N=C1\CCCC1C(O)(C(F)(F)Cl)C(F)(F)Cl` (centres undefined), for which the GI50 with BT-549, with A549, in the test with SW-620, in the test with SF-539, in the test on SK-OV-3 and in the test with NCI-H226 was > 10 µM (inactive) each time. The GI50 in the test on M14, in the test on SK-MEL-2, with SNB-19, in the test on MDA-MB-435, with MCF7 and in the test on SF-268 was > 10 µM (inactive) in each case. Moreover, the GI50 with EKVX is > 10 µM (inactive); with MDA-MB-231, > 10 µM (inactive); with HCT-15 it was over 10 µM; with RPMI-8226, > 10 µM (inactive); in the test on U-251 it was > 10 µM (inactive); with 786-0, > 10 µM (inactive). Moreover, the GI50 in the test on K562 was > 10 µM (inactive).
Regarding `c1ccc2c(c1)SCCCSCCSCCCS2`, the GI50 is > 100 µM (inactive) with BT-549; > 100 µM (inactive) in the test with A549; > 100 µM (inactive) with SW-620; > 100 µM (inactive) in the test with SF-539; 39.4 µM (inactive) in the test with HL-60; > 100 µM (inactive) in the test with SK-OV-3. The GI50 was > 100 µM (inactive) with M14; > 100 µM (inactive) with SNB-19; > 100 µM (inactive) in the test with MDA-MB-435; > 100 µM (inactive) in the test with MCF7; > 100 µM (inactive) with SF-268; 99.8 µM (inactive) in the test on EKVX. The GI50 is 57.3 µM (inactive) with MDA-MB-231; over 100 µM in the test on HCT-15; > 100 µM (inactive) with U-251; > 100 µM (inactive) in the test on 786-0; > 100 µM (inactive) in the test on K562.
As to `C=C1CCC[C@@H](C)C(O)[C@@H]2OC(=O)C(=C)[C@@H]2C[C@@H](OC(C)=O)[C@@]2(C)CC[C@@H]1O2` (some centres undefined), the GI50 is 7.52 µM (inactive) in the test on BT-549; 15.8 µM (inactive) in the test on A549; 8.3 µM (inactive) in the test with SW-620; 7.98 µM (inactive) in the test on SF-539; 10.8 µM (inactive) with SK-OV-3; 8.49 µM (inactive) in the test on NCI-H226. Besides, the GI50 with M14 is 6.97 µM (inactive); in the test on SK-MEL-2, 8.34 µM (inactive); in the test with SNB-19, 45.2 µM (inactive); in the test with MDA-MB-435, 7.71 µM (inactive); with MCF7 it was 5.55 µM (inactive); in the test with SF-268, 7.8 µM (inactive). The GI50 with EKVX is 7.62 µM (inactive); in the test with MDA-MB-231, 8.36 µM (inactive); in the test with HCT-15 it was 3.78 µM; with RPMI-8226, 8.85 µM (inactive); in the test on U-251, 9.57 µM (inactive); with 786-0, 8.95 µM (inactive). The GI50 with K562 was 5.5 µM (inactive).
For the compound `CC(=O)C(C)C(=O)N1C(=O)N(C)C2(C)N(C)C(=O)NC12C` (centres undefined), the GI50 in the test on BT-549, in the test with A549, in the test on SF-539, in the test on HL-60, in the test on SK-OV-3 and in the test on M14 was > 100 µM (inactive) throughout. The GI50 in the test with SK-MEL-2, with SNB-19, in the test on MDA-MB-435, in the test with MCF7, with SF-268 and in the test with EKVX was > 100 µM (inactive) throughout. The GI50 is > 100 µM (inactive) in the test with MDA-MB-231; over 100 µM with HCT-15; > 100 µM (inactive) in the test on RPMI-8226; > 100 µM (inactive) in the test with U-251; > 100 µM (inactive) in the test with 786-0.
